Values of other authors, collected in patent US4925675A (hiMedics, Inc., priority 1988, dated 1990).
Read-outs that look alike come from different tables or passages of the source.

Assays:
[1] = in vivo

SMILES: CC[C@H]1OC(=O)[C@H](C)[C@@H](O[C@H]2C[C@@](C)(OC)[C@@H](O)[C@H](C)O2)[C@H](C)[C@@H](O[C@@H]2O[C@H](C)C[C@H](N(C)C)[C@H]2O)[C@](C)(O)C[C@@H](C)C(=O)[C@H](C)[C@@H](O)[C@]1(C)O [Erythromycin]
- absorption in small intestine versus stomach [1]: better absorption characteristics in the small intestine than in the stomach
- pKa: 8.7
- solubility in simulated intestinal fluid (SIF): very soluble
- solubility in alcohol, chloroform, ether and acetone (alcohol, chloroform, ether and acetone): freely soluble
- solubility in amyl acetate and ethylene dichloride (amyl acetate and ethylene dichloride): moderately soluble
- solubility in water: very slightly soluble
- solubility in water (listed as erythromycin): not highly soluble
